This is an account of results in patent US8618074B2, “GPCR enhanced neuroprotection to treat brain injury” (Board of Regents of the University of Texas System, priority 2007, dated 2013).

One assay relates to astrocytes. Kind of assay: Time until mitochondrial membrane potential (ΔΨ, TMRE) collapse during t-BuOOH oxidative stress. The following applies: for time until ΔΨ collapse: oligomycin 1 μg/ml 30 min pretreatment, t-buOOH 100 μM; for mean time until ΔΨ collapse: oligomycin pretreatment + extracellular ATP 10 minutes, then oxidative stress. Type of assay: cell-based, mouse. As for the experimental part:
(§1) Primary cultures of astrocytes were prepared as previously published (Lin et al., 2005). C57BL/6 male mice were purchased from the National Institute of Aging and maintained in standard accredited housing conditions at the University of Texas Health Science Center Animal Facility. Animal protocols were approved by our Institutional Animal Care Use Committee. Astrocytes were cultured in DMEM F-12 media (Invitrogen, # 11039-021) supplemented with 2 mM glutamine, nonessential amino acids, 10% fetal calf serum, 100 U/ml penicillin/streptomycin (Cambrex BioScience Walkersville, #17-602E) and 1% fungizone (Invitrogen, #15290-018) at 37° C. in an atmosphere containing 5% CO2. The culture medium was changed every 3-5 days. Confluent cells were gently removed by a trypsin EDTA solution and re-plated on 35 mm glass bottom chambers (Bioptechs #04200415C) prior to imaging experiments 3-4 days later. Cells were maintained in plastic culture flasks until the final re-seeding of cells onto a glass bottom chamber and were passed up to 3 times for astrocyte only experiments. For co-culture experiments with neurons, primary astrocytes were plated directly onto corning transwell-clear permeable supports, which physically separates the two cell-types by ˜1 mm (# 07-200-170, Fisher scientific). Astrocytes were cultured in transwells until they were ˜70% confluent. Mouse cortical neurons (Cambrex Bio Science Walkersville Inc., # M-CX-300) were then cultured onto 6 well mat-tek glass bottom plates and maintained in Neurobasal Medium (Invitrogen, # 21103-049), 2 mM L-Glutamine (Cambrex BioScience Walkersville, #17-605E), 100 U/ml penicillin/streptomycin (Cambrex BioScience Walkersville, #17-602E) and B-27 with (Invitrogen, #17504-044) and without antioxidants (Invitrogen, #10889-038), which controls glia contamination to less than 0.5%. The transwell supports with cultured astrocytes were placed in the neuron seeded glass bottom chambers for four days before imaging and both cell types were then maintained in neuronal media. For neuron only experiments, the astrocytes on the transwell supports were removed prior to treatments and imaging.
Mitochondrial membrane potentials (ΔΨs) was measured as previously described using the potential sensitive dye tetra-methyl rhodamine ethyl ester (TMRE, Molecular Probes, #T-669) (Lin and Lechleiter, 2002). Images were acquired with a 60× oil 1.4 NA objective on a Nikon PCM2000 confocal microscope custom adapted for two-photon imaging. A Ti-sapphire Coherent Mira 900 Laser pumped with a 5W Verdi laser (Coherent Inc., Santa Clara, Calif.) was used to excite TMRE at 800 nm A neutral-density filter wheel was used to attenuate the laser intensity so that no detectable photobleaching of TMRE was observed.
To investigate this, primary cultures of astrocytes were prepared from the brains of young (4-6 months) and old (26-28 months) mice and re-plated on glass coverslips prior to each imaging experiment as previously described. Seeded glass coverslips were then sealed in an open chamber (Bioptechs Delta T) and perfused at 37° C. with the potential sensitive dye tetramethyl rhodamine ethyl ester (TMRE, 200 nM, Molecular Probes/Invitrogen) to label astrocyte mitochondria. Mitochondrial membrane potentials (ΔΨs) were measured every 5 minutes using two-photon microscopy. Each image is a maximum intensity projection of a z-stack of six optical sections (1-μm steps). Scale bar is 10 μm. Plated cells were continuously perfused at 37° C. with culture medium containing TMRE (200 nM) and imaged with 2-photon microscopy (800 nm). Oxidative stress was applied to the cells in the perfusate with t-BuOOH (100 μM). Cell viability was then monitored by the collapse of ΔΨ (TMRE fluorescence) to 10% of its initial value. The time course of ΔΨ collapse is plotted for 3 astrocytes (A1, A2, A3) in each culture (FIGS. 1B and 2B). Fluorescent units are scaled to 100% at 0 hours. […]

A further assay concerns Mouse cortical neurons. Kind of assay: Neuronal survival in transwell co-culture with astrocytes under t-buOOH oxidative stress (Hoechst/calcein). The assay is classed as cell-based. As for the experimental part: as §1
Sensitivity of neurons to oxidative stress was assessed by treating cultures with 100 μM tert-butyl hydrogen peroxide (t-BuOOH, Sigma, #B-2633) for 3 hours. Neurons were then stained with Hoechst 33342 (10 μg/ml, Molecular Probes, #H-3570) to label all cell nuclei and calcein AM (2 μM, #C3100, Molecular Probes, #C3100). […] Calcein fluorescence is only observed in live cells that have maintained their plasma membrane integrity. Images were acquired on an inverted Nikon TE300 microscope with a Hamamatsu ORCAER camera and Open lab software (Improvision).
To determine whether P2Y-R enhanced mitochondrial metabolism in astrocytes affected neuronal resistance to oxidative stress, we prepared co-cultures of neurons and astrocytes using corning transwell-clear permeable supports, which physically separates the two cell-types by ˜1 mm (# 07-200-170, Fisher scientific). Primary cultures of astrocytes were directly prepared in transwell supports until they were ˜70% confluent. Mouse cortical neurons were then cultured onto glass bottom mattek plates and maintained in B-27/Neurobasal Medium to control glia contamination to less than 0.5% (Invitrogen). After four days, co-cultures were treated with t-buOOH (100 μM) for 4 hours with and without pre-stimulation of ATP (2 μM, 10 minutes). Cells were then stained with the DNA intercalating dye Hoechst 33342 (10 μg/ml, Molecular Probes, #H-3570) and calcein AM (2 μM, Molecular Probes, #C3100). […] We then tested the neuroprotective affects of isoform specific purinergic ligands 2-MeSADP(P2Y1-R) and UTP(P2Y2-R). FIG. 6A depicts histogram plots of the percentage of neurons alive when cocultured with young or old astrocytes. FIG. 6B depicts histogram plots of the percentage of neurons alive pretreated with either 2-MeSADP (2 μM) or UTP (50 μM) for 10 min. […]

The structures appear in SMILES notation.

Regarding `Nc1ncnc2c1ncn2[C@@H]1O[C@H](COP(=O)(O)OP(=O)(O)OP(=O)(O)O)[C@@H](O)[C@H]1O` [ATP], the “average time until ΔΨ collapse” value in the assay on astrocytes (old astrocytes, ATP 10 μM 10 min prior to t-BuOOH 100 μM) worked out at 6.65 ± 0.24 h. In addition, the “average time for ΔΨ to collapse” value in the assay with astrocytes (young astrocytes, ATP 10 μM 10 min prior to t-BuOOH 100 μM) was 7.35 ± 0.23 h. Moreover, the neuronal survival is given as 87±2% with Mouse cortical neurons (co-cultured with old astrocytes, ATP 2 μM 10 minutes pre-stimulation, t-buOOH 100 μM 4 hours) and 87±2% in the assay on Mouse cortical neurons (co-cultured with young astrocytes, ATP 2 μM 10 minutes pre-stimulation, t-buOOH 100 μM 4 hours).
With `CC[C@H]1/C=C/C=C/C[C@@H](C)[C@H](O)[C@@](C)(O)C(=O)[C@@H](C)[C@H](O)[C@@H](C)C(=O)[C@@H](C)[C@H](O)[C@@H](C)/C=C/C(=O)O[C@@H]2[C@H](C)[C@H](CC1)O[C@]1(CC[C@H](C)[C@H](C[C@@H](C)O)O1)[C@H]2C` [oligomycin], the “time until ΔΨ collapse” value worked out at 4.16 ± 0.14 h with astrocytes (old astrocytes) and 5.15 ± 0.08 h in the assay with astrocytes (young astrocytes). The “mean time until ΔΨ collapse” value in the assay on astrocytes (old astrocytes) worked out at 3.21±0.08; in the assay on astrocytes (young astrocytes), 4.69±0.23. In addition, the neuronal survival in the assay with Mouse cortical neurons (anti-oxidant-free B-27, oligomycin 0.01 μM 30 minutes + 2-MeSADP, t-buOOH 3 hours) was 26±3%; in the assay on Mouse cortical neurons (anti-oxidant-free B-27, oligomycin 0.01 μM 30 minutes, t-buOOH 3 hours), 25±3%.
Take `CSc1nc(N)c2ncn([C@@H]3O[C@H](COP(=O)(O)OP(=O)(O)O)[C@@H](O)[C@H]3O)c2n1` [2-MeSADP]: the “% neurons alive (neuronal survival)” value with Mouse cortical neurons (anti-oxidant-free B-27, 2-MeSADP 2 μM 10 minutes, t-buOOH 100 μM 3 hours) is recorded as 43±3%. In the assay with Mouse cortical neurons (co-cultures, 10 min pre-treatment 2-MeSADP 2 μM or UTP 50 μM, 4.5 hours of t-buOOH), the “% neurons alive” value was 70±2%.
